Data as given in ChEMBL document CHEMBL3813693, “Gastroprotective effects of new diterpenoid derivatives from Azorella cuatrecasasii Mathias & Constance obtained using a β-cyclodextrin complex with microbial and chemical transformations” (2016).

Legend:
[1] = test system: Mus musculus; experiment: Gastroprotective activity in Swiss albino mouse model of HCl/EtOH-induced ulcer assessed as lesion index at 20 mg/kg, po dosed 50 mins before HCl/EtOH challenge measured after 1 hr (reference value: 37.7 +/- 4.3 millimeter); type: functional
[2] = test system: Mus musculus; experiment: Gastroprotective activity in Swiss albino mouse assessed as reduction in HCl/EtOH-induced gastric lesions at 20 mg/kg, po dosed 50 mins before HCl/EtOH challenge measured after 1 hr relative to control; type: functional; details: Stomach

Row | SMILES | UI [1] [mm] | inhibition in vivo at 20 mg/kg [2] [%]
1 | COC(=O)[C@]12C[C@@H](O)[C@@]3(C)CC=C(CO)C=C[C@H]3[C@@H]1CC[C@@H]2C(C)C | 24.3 | 36
2 | CC(=O)OCC1=CC[C@]2(C)[C@H](OC(C)=O)C[C@]3(C(=O)O)[C@@H](C(C)C)CC[C@H]3[C@@H]2C=C1 | 19.6 | 48
3 | CC(C)[C@H]1CC[C@H]2[C@@H]3C=CC(CO)=CC[C@]3(C)CC[C@]12C(=O)O | 15.4 | 59
4 | COC(=O)[C@]12C[C@@H](OC(C)=O)[C@@]3(C)CC=C(COC(C)=O)C=C[C@H]3[C@@H]1CC[C@@H]2C(C)C | 35.6 | 6
5 | Cc1c(OCC(F)(F)F)ccnc1C[S+]([O-])c1nc2ccccc2[nH]1 (stereo not drawn) [LANSOPRAZOLE] | 16.1 | 57
6 | CC(C)[C@H]1CC[C@H]2[C@@H]3C=CC(CO)=CC[C@]3(C)[C@H](O)C[C@]12C(=O)O | 11.8 | 69
7 | CC(=O)OCC1=CC[C@]2(C)CC[C@]3(C(=O)O)[C@@H](C(C)C)CC[C@H]3[C@@H]2C=C1 | 21.6 | 43
8 | COC(=O)[C@]12CC[C@@]3(C)CC=C(COC(C)=O)C=C[C@H]3[C@@H]1CC[C@@H]2C(C)C | 36.8 | 3
9 | COC(=O)[C@]12CC[C@@]3(C)CC=C(CO)C=C[C@H]3[C@@H]1CC[C@@H]2C(C)C | 31 | 18
